The target of assay [1] is Histamine H2 receptor (Cavia porcellus) (UniProt P47747). The assay can be described thus: Histamine H2 receptor agonistic activity was evaluated by the inhibition of histamine-stimulated contraction in guinea pig atrium. It is filed as functional, tissue-based. The following applies: Cardiac atrium.
The target is the same in assay [2]. The assay can be described thus: Intrinsic activity was evaluated against H2 receptor in guinea pig atrium. Format: tissue-based. To be noted: Cardiac atrium.
The target of assay [3] is Histamine H1 receptor (Cavia porcellus) (UniProt P31389). Briefly: Antagonistic activity (H1 antagonism) evaluated by the inhibition of histamine-stimulated contraction in guinea pig ileum at a concentration of 1E-7 - 1E-4 M. It is filed as functional, tissue-based.
Assay [4] concerns the target T1, Neuropeptide Y receptor type 1 (Homo sapiens) (UniProt P25929).
T1 sequence (whole entry): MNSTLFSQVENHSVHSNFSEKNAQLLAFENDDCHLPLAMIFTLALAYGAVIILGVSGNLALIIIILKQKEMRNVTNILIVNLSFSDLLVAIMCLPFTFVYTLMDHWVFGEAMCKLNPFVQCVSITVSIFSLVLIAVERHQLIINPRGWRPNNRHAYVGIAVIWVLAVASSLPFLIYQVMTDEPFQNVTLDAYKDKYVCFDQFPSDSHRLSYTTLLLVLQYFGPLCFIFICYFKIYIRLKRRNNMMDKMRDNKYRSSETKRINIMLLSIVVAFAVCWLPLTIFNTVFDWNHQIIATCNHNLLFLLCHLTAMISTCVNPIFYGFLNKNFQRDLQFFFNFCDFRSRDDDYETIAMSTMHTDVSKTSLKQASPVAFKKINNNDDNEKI
The assay can be described thus: Tested for inhibition of NPY-induced increase in [Ca2+] at 100 uM concentration in human erythroleukemia cells. It is filed as functional.

For assay [5], the target named is T1, Neuropeptide Y receptor type 1 (Homo sapiens). The assay can be described thus: Tested for inhibition of NPY-induced increase in [Ca2+] at 10 uM concentration in human erythroleukemia cells. It is filed as functional.
For assay [6] the target is unchanged. Briefly: (§1) pA2 for inhibition of NPY-stimulated [Ca2+] mobilization in HEL cells. Format: cell-based.
Assay [7] has as its target Histamine H2 receptor (Cavia porcellus) (UniProt P47747). The assay can be described thus: Intrinsic activity was evaluated in guinea pig atrium at a concentration of 1E-7 - 1E-4 M. It is filed as tissue-based. To be noted: Cardiac atrium.
For assay [8] the target is unchanged. The assay can be described thus: Histamine H2 receptor […] activity (positive chronotropism) was evaluated by the inhibition of histamine-stimulated contraction in guinea pig atrium at a concentration of 1E-7 - 1E-4 M. Format: functional, tissue-based. The following applies: Cardiac atrium.
The target in assay [9] is T1, Neuropeptide Y receptor type 1 (Homo sapiens). The assay can be described thus: Tested for inhibition of NPY-induced increase in [Ca2+] at 10 uM concentration in human erythroleukemia cells; Not determined; inactive. It is filed as functional.
In assay [10] the target is Histamine H2 receptor (Cavia porcellus) (UniProt P47747). The assay can be described thus: Intrinsic activity was evaluated against H2 receptor in guinea pig atrium at a concentration of 1E-7 - 1E-4 M. Format: tissue-based. To be noted: Cardiac atrium.
For assay [11], the target named is T1, Neuropeptide Y receptor type 1 (Homo sapiens). The assay can be described thus: Tested for inhibition of NPY-induced increase in [Ca2+] at 10 uM concentration in human erythroleukemia cells; inactive. It is filed as functional.
The target of assay [12] is Histamine H2 receptor (Cavia porcellus) (UniProt P47747). The assay can be described thus: Histamine H2 receptor agonistic activity (positive chronotropism) was evaluated by the inhibition of histamine-stimulated contraction in guinea pig atrium; Inactive. Format: functional, tissue-based. To be noted: Cardiac atrium.
Assay [13] has as its target T2, Neuropeptide Y receptor type 1 (Homo sapiens, UniProt P25929).
T2 sequence (P25929 whole entry): T1 sequence (whole entry)
The assay is described as §1. It is filed as functional, cell-based. To be noted: read-out: pA2 (converted).

For assay [14], the target named is T1, Neuropeptide Y receptor type 1 (Homo sapiens). Briefly: Tested for inhibition of NPY-induced increase in [Ca2+] at 10 uM concentration in human erythroleukemia cells; Not determined. Format: functional.
Assay [15] has the same target. Briefly: Tested for inhibition of NPY-induced increase in [Ca2+] at 100 uM concentration in human erythroleukemia cells; inactive. Format: functional.

As usually defined, the pKB is the KB on a negative log10 scale, so that one unit is a factor of ten. Usually inhibition stands for the relative decrease from the control value, in per cent.

SMILES strings stand for the structures. The source made the active and inactive calls. No cut-off for these calls is given here.

Histamine H1 receptor (Cavia porcellus), sequence (P31389 whole entry): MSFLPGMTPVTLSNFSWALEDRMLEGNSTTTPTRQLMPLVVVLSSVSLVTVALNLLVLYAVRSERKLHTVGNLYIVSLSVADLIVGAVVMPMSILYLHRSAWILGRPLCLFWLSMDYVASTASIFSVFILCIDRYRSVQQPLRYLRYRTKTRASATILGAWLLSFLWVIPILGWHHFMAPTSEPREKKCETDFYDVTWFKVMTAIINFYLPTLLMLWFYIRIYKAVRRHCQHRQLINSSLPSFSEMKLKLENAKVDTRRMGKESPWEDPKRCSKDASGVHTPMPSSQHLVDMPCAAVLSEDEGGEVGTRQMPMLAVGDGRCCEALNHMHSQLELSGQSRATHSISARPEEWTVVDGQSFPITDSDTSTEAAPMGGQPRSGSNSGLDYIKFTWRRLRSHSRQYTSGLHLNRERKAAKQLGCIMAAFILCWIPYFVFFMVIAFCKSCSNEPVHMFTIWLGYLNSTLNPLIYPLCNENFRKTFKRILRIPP
Histamine H2 receptor (Cavia porcellus), sequence (P47747 whole entry): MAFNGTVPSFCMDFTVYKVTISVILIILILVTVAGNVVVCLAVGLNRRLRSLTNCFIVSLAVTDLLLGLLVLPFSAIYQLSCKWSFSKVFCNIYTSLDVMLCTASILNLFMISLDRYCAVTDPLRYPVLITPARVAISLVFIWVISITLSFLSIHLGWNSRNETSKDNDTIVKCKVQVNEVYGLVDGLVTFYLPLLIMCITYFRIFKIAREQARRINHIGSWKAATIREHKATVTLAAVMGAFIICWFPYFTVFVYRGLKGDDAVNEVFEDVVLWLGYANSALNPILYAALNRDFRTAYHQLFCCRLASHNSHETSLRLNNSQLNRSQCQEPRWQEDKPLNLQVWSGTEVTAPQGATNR

In turn, `CN(CCC(c1ccc(F)cc1)c1ccccn1)C(=N)NCCCc1c[nH]cn1` (stereo unspecified) displayed a pD2 in assay [1] of 5.4. The Intrinsic activity in assay [2] worked out at 0.8. In addition, in assay [3], the pKB stood at 5.96. The same molecule returned an inhibition in assay [4] of 42%.
For `Fc1ccc(C(CCCNCCCc2c[nH]cn2)c2ccccn2)cc1` (stereo unspecified), in that order: 5.17, 0.5, 6.43 and 24%.
Consider `N=C(NCCCc1c[nH]cn1)NCCCC(c1ccccc1)c1ccccn1` (stereo unspecified), for which, in [1], the pD2 was 6.61. The values for the inhibition in assay [5] and in assay [4] were 8% and 84%, respectively. In assay [2], this molecule came in with an Intrinsic activity of 1. This molecule also registered a negative logarithm of the KB (pKB) in assay [3] of 6.06.
For the molecule `N=C(NCCCc1c[nH]cn1)NCCC(c1ccccc1)c1ccccn1` (stereo unspecified), the pD2 in assay [1] was determined as 7.39. For the same molecule, the inhibition in assay [5] came to 2%; in assay [4], 69%. The molecule also came in with an Intrinsic activity in assay [2] of 1. This molecule also displayed a negative-log KB (pKB) in assay [3] of 7.01.
Take `N=C(NCCCc1c[nH]cn1)NCCC(c1ccc(Cl)c(Cl)c1)c1ccccn1` (stereo unspecified): the pKB in [6] stood at 6.25; in assay [3], 7.1. The molecule also returned a pD2 in assay [1] of 8.19. Further, the values for the inhibition in assay [5] and in assay [4] were 81% and 93%, respectively. The molecule further gave an Intrinsic activity in assay [2] of 1.
In assay [1], `N=C(CCCCc1c[nH]cn1)NCCC(c1ccc(F)cc1)c1ccccn1` (stereo unspecified) returned a pD2 of 6.47. The results for the inhibition in assay [5] and in assay [4] were 5% and 27%, respectively. The Intrinsic activity in assay [2] stood at 0.6. For the same molecule, in [3], the pKB is 6.56.
The molecule `Brc1ccc(C(CC/N=C(/NCCCc2c[nH]cn2)Nc2ccccc2)c2ccccn2)cc1` (stereo unspecified) came in with an Intrinsic activity in [7] of 1. Also, the inhibition in assay [5] is 24%; in assay [4] it was 76%. In addition, the pKB in assay [3] was determined as 5.81; in [8], 5.14.
As for `CN/C(=N\CCC(c1ccc(F)cc1)c1ccccn1)NCCCc1c[nH]cn1` (stereo unspecified), the pD2 in assay [1] was 5.65. The molecule further registered an Intrinsic activity in assay [2] of 1. The negative logarithm of the KB (pKB) in assay [3] was 5.08. In assay [4], this molecule showed an inhibition of 13%.
`N=C(NCCCc1c[nH]cn1)NCCC(c1ccc(F)cc1)c1ccccn1` (stereo unspecified) had a pD2 in [1] of 8.01. In addition, the inhibition in assay [5] is 18%; in [4], 75%. The Intrinsic activity in assay [2] was determined as 1. Further, the negative logarithm of the KB (pKB) in assay [3] came out at 7.65.
For the molecule `O=C(CCC(c1ccc(F)cc1)c1ccccn1)NCCCc1c[nH]cn1` (stereo unspecified), the pD2 in assay [1] is under 3. For the same molecule, the negative-log KB (pKB) in assay [3] is 3.97. Besides, the inhibition result in [9] was “inactive”. For the same molecule, in [10], the Intrinsic activity was 1.
For the molecule `CN/C(=N\CCC(c1ccc(Br)cc1)c1ccccn1)NCCCc1c[nH]cn1` (stereo unspecified), the inhibition result in [11] was “inactive”. In assay [1], this molecule displayed a pD2 of 5.75. Also, the Intrinsic activity in assay [2] was 0.9. For the same molecule, the negative logarithm of the KB (pKB) in assay [3] amounted to 5.71. This molecule showed an inhibition in assay [4] of 38%.
On to `N#CN/C(=N\CCC(c1ccc(F)cc1)c1ccccn1)NCCCc1c[nH]cn1` (stereo unspecified), for which, in assay [11], the inhibition entry was “inactive”. Moreover, in assay [12], the pD2 entry is “inactive”. The inhibition in assay [4] stood at 13%.
In assay [1], `CN/C(=N\CCCC(c1ccc(Cl)c(Cl)c1)c1ccccn1)NCCCc1c[nH]cn1` (stereo unspecified) returned a pD2 of 5.58. This molecule registered an Intrinsic activity in [2] of 1. The same molecule registered a pKB in [3] of 6.16. For the same molecule, in [4], the inhibition was found to be 41%.
As to `CCOC(=O)N/C(=N\CCC(c1ccc(F)cc1)c1ccccn1)NCCCc1c[nH]cn1` (stereo unspecified), the values for the inhibition in [5] and in assay [4] were 2% and 4%, respectively. The pD2 entry in [12] is “inactive”. Besides, the negative-log KB (pKB) in assay [3] came out at 5.3.
For the molecule `Brc1ccc(C(CC/N=C(/NCCCc2c[nH]cn2)NC2CCCCC2)c2ccccn2)cc1` (stereo unspecified), the pD2 in assay [1] was 4.69. Also, the results for the inhibition in assay [5] and in assay [4] were 36% and 82%, respectively. The molecule also showed an Intrinsic activity in assay [2] of 0.65. In addition, in [3], the negative-log KB (pKB) was 5.42.
Turning to `NC(=O)N/C(=N\CCC(c1ccc(F)cc1)c1ccccn1)NCCCc1c[nH]cn1` (stereo unspecified), the inhibition came to 2% in assay [5] and 62% in assay [4].
The molecule `N=C(CCC(c1ccccc1)c1ccccn1)NCCCc1c[nH]cn1` (stereo unspecified) had a pD2 in [1] of 6.5. In addition, the Intrinsic activity in [2] turned out to be 1. In [3], the negative-log KB (pKB) came to 6.45. The molecule also displayed an inhibition in assay [4] of 45%.
On to `N=C(NCCCc1c[nH]cn1)NCCC(c1cc(F)cc(F)c1)c1ccccn1` (stereo unspecified), for which, in [1], the pD2 amounted to 8.05. The same molecule showed an Intrinsic activity in assay [2] of 1. Further, in [3], the pKB worked out at 6.56. In addition, the inhibition in [4] amounted to 62%. Besides, in [13], the Kb was 37.2 µM.
As for `Cc1ccc(CC(CC/N=C(\N)NCCCc2c[nH]cn2)c2ccccn2)cc1` (stereo unspecified), in assay [1], the pD2 is 5.81. In addition, the inhibition in assay [5] came to 23%. The molecule further gave an Intrinsic activity in assay [2] of 1. Further, the negative-log KB (pKB) in assay [3] turned out to be 6.4.
On to `N=C(NCCCc1c[nH]cn1)NCCC(c1ccc(Br)cc1)c1ccccn1` (stereo unspecified), for which the pD2 in assay [1] stood at 7.48. Moreover, the inhibition in assay [5] is 27%; in assay [4], 85%. This molecule also came in with an Intrinsic activity in [2] of 1. In addition, the negative-log KB (pKB) in [3] was found to be 6.92.
For the molecule `Clc1ccc(C(CCC/N=C(/NCCCc2c[nH]cn2)NC2CCCCC2)c2ccccn2)cc1Cl` (stereo unspecified), the pD2 in assay [1] was 4.65. The molecule further gave an Intrinsic activity in [2] of 1. The molecule further had a pKB in [3] of 5.76. Further, the inhibition in assay [14] amounted to 30%; in assay [4], 87%.
Take `N=C(NCCCc1c[nH]cn1)NCCCC(c1ccc(Cl)c(Cl)c1)c1ccccn1` (stereo unspecified): the pD2 in assay [1] is 6.67. Further, the inhibition amounted to 31% in assay [5] and 78% in [4]. The Intrinsic activity in assay [2] came out at 1. In assay [3], this molecule displayed a negative logarithm of the KB (pKB) of 7.46.
For `Cc1ccc(CC(CC/N=C(/NCCCc2c[nH]cn2)NC2CCCCC2)c2ccccn2)cc1` (stereo unspecified), the results for the inhibition in assay [5] and in assay [4] were 24% and 75%, respectively. This molecule also yielded an Intrinsic activity in assay [2] of 1. Moreover, the pKB turned out to be 5.4 in [3] and 5.93 in assay [8].
`c1ccc(C(CCC/N=C(/NCCCc2c[nH]cn2)NC2CCCCC2)c2ccccn2)cc1` (stereo unspecified) gave a pD2 in assay [1] of 4.49. For the same molecule, the values for the inhibition in assay [5] and in assay [4] were 6% and 53%, respectively. The Intrinsic activity in assay [2] is 0.25. The molecule also showed a negative logarithm of the KB (pKB) in assay [3] of 5.56.
Consider `Clc1ccc(C(CCC/N=C(/NCCCc2c[nH]cn2)Nc2ccccc2)c2ccccn2)cc1Cl` (stereo unspecified), for which the pKB in assay [3] was determined as 5.5; in [8], 4.97. The molecule further returned an Intrinsic activity in [10] of 1. Also, the inhibition in assay [14] amounted to 48%; in [4], 78%.
With `N=C(N)NCCC(c1ccc(F)cc1)c1ccccn1` (stereo unspecified), the pD2 result in [12] is “inactive”. Also, the negative logarithm of the KB (pKB) in [3] is 6.44. In addition, the inhibition entry in assay [15] was “inactive”.
